In ChEMBL document CHEMBL3751718, “Synthesis and biological evaluation of lipid-like 5-(2-hydroxyethyl)-4-methyl-1,3-thiazole derivatives as potential anticancer and antimicrobial agents” (Medchemcomm, 2015):
In brackets after ≈: the same amount, converted by molar mass. Activity calls are given as the source filed them. The calls are words filed in the database; no cut-off is given here.

What was measured:
MG-22A [1] = test: Induction of nitric oxide production in mouse MG-22A cells by Griess assay; type: functional; set-up: concentration or dose not given beside the values
CCRF S-180 [2] = test: Antitumor activity against mouse S180 cells allografted into ICR mouse assessed as tumor growth inhibition at 1.5 mg/kg, sc administered on day 1,2,3 and 7 after 24 hrs tumor transplantation measured on day 9; type: functional, organism-based
[3] = Cytotoxicity against mouse NIH/3T3 cells assessed as cell viability at 6.25 to 50 ug/ml by neutral red-based assay; settings: nih3t3
Staphylococcus aureus [4] = test: Antibacterial activity against Staphylococcus aureus MSCL 334 at 5 mg/ml after 24 hrs by agar dish diffusion method; type: functional
Bacillus cereus [5] = test: Antibacterial activity against Bacillus cereus MSCL 330 at 5 mg/ml after 24 hrs by agar dish diffusion method; type: functional; settings: MSCL 330, 24 h, read-out: DIZ
Escherichia coli [6] = test: Antibacterial activity against Escherichia coli MSCL 332 at 5 mg/ml after 24 hrs by agar dish diffusion method; type: functional; settings: MSCL 332, 24 h, read-out: DIZ
Pseudomonas aeruginosa [7] = test: Antibacterial activity against Pseudomonas aeruginosa MSCL 331 at 5 mg/ml after 24 hrs by agar dish diffusion method; type: functional
Proteus mirabilis [8] = test: Antibacterial activity against Proteus mirabilis MSCL 590 at 5 mg/ml after 24 hrs by agar dish diffusion method; type: functional; settings: MSCL 590, 24 h, read-out: DIZ
Candida albicans [9] = test: Antifungal activity against Candida albicans MSCL 378 at 5 mg/ml after 48 hrs by agar dish diffusion method; type: functional; settings: MSCL 378, 48 h, read-out: DIZ
Aspergillus niger [10] = test: Antifungal activity against Aspergillus niger MSCL 324 at 5 mg/ml after 48 hrs by agar dish diffusion method; type: functional
Staphylococcus aureus [11] = test: Antibacterial activity against Staphylococcus aureus MSCL 334 at 10 mg/ml after 24 hrs by agar dish diffusion method; type: functional
Bacillus cereus [12] = test: Antibacterial activity against Bacillus cereus MSCL 330 at 10 mg/ml after 24 hrs by agar dish diffusion method; type: functional; settings: MSCL 330, 24 h, read-out: DIZ
Escherichia coli [13] = test: Antibacterial activity against Escherichia coli MSCL 332 at 10 mg/ml after 24 hrs by agar dish diffusion method; type: functional; settings: MSCL 332, 24 h, read-out: DIZ
Pseudomonas aeruginosa [14] = test: Antibacterial activity against Pseudomonas aeruginosa MSCL 331 at 10 mg/ml after 24 hrs by agar dish diffusion method; type: functional
Proteus mirabilis [15] = test: Antibacterial activity against Proteus mirabilis MSCL 590 at 10 mg/ml after 24 hrs by agar dish diffusion method; type: functional; settings: MSCL 590, 24 h, read-out: DIZ
Candida albicans [16] = test: Antifungal activity against Candida albicans MSCL 378 at 10 mg/ml after 48 hrs by agar dish diffusion method; type: functional; settings: MSCL 378, 48 h, read-out: DIZ
Aspergillus niger [17] = test: Antifungal activity against Aspergillus niger MSCL 324 at 10 mg/ml after 48 hrs by agar dish diffusion method; type: functional; settings: MSCL 324, 48 h, read-out: DIZ
CCRF S-180 [18] = test: Antitumor activity against mouse S180 cells allografted into ICR mouse assessed as tumor growth inhibition at 2.5 mg/kg, sc administered on day 1,2,3 and 7 after 24 hrs tumor transplantation measured on day 9; type: functional; settings: CCRF S-180, sc, read-out: TGI
HT-1080 [19] = test: Induction of nitric oxide production in human HT1080 cells by Griess assay; type: functional; set-up: concentration or dose not given beside the values
[20] = (§1) Cytotoxicity against human HT1080 cells assessed as cell viability at 6.25 to 50 ug/ml by crystal violet-based assay; type: functional; settings: HT-1080, read-out: LC50 (the source's name)
[21] = (§2) Cytotoxicity against human HT1080 cells assessed as cell viability at 6.25 to 50 ug/ml after 72 hrs by MTT assay; type: functional; settings: HT-1080, 72 h, read-out: LC50 (the source's name)
MG-22A [22] = test: Cytotoxicity against mouse MG-22A cells assessed as cell viability at 6.25 to 50 ug/ml by crystal violet-based assay; type: functional
MG-22A [23] = test: Cytotoxicity against mouse MG-22A cells assessed as cell viability at 6.25 to 50 ug/ml after 72 hrs by MTT assay; type: functional
Candida albicans [24] = test: Antifungal activity against Candida albicans MSCL 378 after 24 hrs by broth dilution method; type: functional; settings: MSCL 378, 24 h
Candida albicans [25] = test: Fungicidal activity against Candida albicans MSCL 378 incubated for 24 hrs followed by colony transfer to agar plates for 24 hrs by colony counting based assay; type: functional; settings: MSCL 378, 24 h, read-out: MFC99.9
Aspergillus niger [26] = test: Antifungal activity against Aspergillus niger MSCL 324 after 24 hrs by broth dilution method; type: functional; settings: MSCL 324, 24 h
Aspergillus niger [27] = test: Fungicidal activity against Aspergillus niger MSCL 324 incubated for 24 hrs followed by colony transfer to agar plates for 24 hrs by colony counting based assay; type: functional; settings: MSCL 324, 24 h, read-out: MFC99.9
Candida albicans [28] = test: Antifungal activity against Candida albicans MSCL 378 at 2 mg/ml after 48 hrs by agar dish diffusion method; type: functional; settings: MSCL 378, 48 h, read-out: DIZ
Aspergillus niger [29] = test: Antifungal activity against Aspergillus niger MSCL 324 at 2 mg/ml after 48 hrs by agar dish diffusion method; type: functional; settings: MSCL 324, 48 h, read-out: DIZ
Aspergillus niger [30] = test: Antifungal activity against Aspergillus niger MSCL 324 at 4 mg/ml after 48 hrs by agar dish diffusion method; type: functional; settings: MSCL 324, 48 h, read-out: DIZ
Staphylococcus aureus [31] = test: Antibacterial activity against Staphylococcus aureus MSCL 334 at 2 mg/ml after 24 hrs by agar dish diffusion method; type: functional, organism-based
Staphylococcus aureus [32] = test: Antibacterial activity against Staphylococcus aureus MSCL 334 at 4 mg/ml after 24 hrs by agar dish diffusion method; type: functional, organism-based
Bacillus cereus [33] = test: Antibacterial activity against Bacillus cereus MSCL 330 at 2 mg/ml after 24 hrs by agar dish diffusion method; type: functional, organism-based
Bacillus cereus [34] = test: Antibacterial activity against Bacillus cereus MSCL 330 at 4 mg/ml after 24 hrs by agar dish diffusion method; type: functional, organism-based
Escherichia coli [35] = test: Antibacterial activity against Escherichia coli MSCL 332 at 2 mg/ml after 24 hrs by agar dish diffusion method; type: functional, organism-based
Escherichia coli [36] = test: Antibacterial activity against Escherichia coli MSCL 332 at 4 mg/ml after 24 hrs by agar dish diffusion method; type: functional, organism-based
Pseudomonas aeruginosa [37] = test: Antibacterial activity against Pseudomonas aeruginosa MSCL 331 at 2 mg/ml after 24 hrs by agar dish diffusion method; type: functional, organism-based
Pseudomonas aeruginosa [38] = test: Antibacterial activity against Pseudomonas aeruginosa MSCL 331 at 4 mg/ml after 24 hrs by agar dish diffusion method; type: functional, organism-based
Proteus mirabilis [39] = test: Antibacterial activity against Proteus mirabilis MSCL 590 at 2 mg/ml after 24 hrs by agar dish diffusion method; type: functional, organism-based
Proteus mirabilis [40] = test: Antibacterial activity against Proteus mirabilis MSCL 590 at 4 mg/ml after 24 hrs by agar dish diffusion method; type: functional, organism-based
HT-1080 [41] = test: as §1; type: functional
HT-1080 [42] = test: as §2; type: functional
[43] = read-out: LC50 (the source's name)

Compound: CCCCCCCCCCCOCCc1sc[n+](C)c1C.[I-]
- Activity (MG-22A [1]): 150%
- inhibition (CCRF S-180 [2]): inactive
- LC50 [3]: 93300 nM
- zone of inhibition at 5000 µg/mL (Staphylococcus aureus [4]; MSCL 334, 24 h, read-out: DIZ): 29 mm
- zone of inhibition at 5000 µg/mL (Bacillus cereus [5]): 25 mm
- zone of inhibition at 5000 µg/mL (Escherichia coli [6]): 25 mm
- zone of inhibition at 5000 µg/mL (Pseudomonas aeruginosa [7]; MSCL 331, 24 h, read-out: DIZ): 11 mm
- zone of inhibition at 5000 µg/mL (Proteus mirabilis [8]): 17 mm
- zone of inhibition at 5000 µg/mL (Candida albicans [9]): 28 mm
- diameter of the inhibition zone (DIZ) (Aspergillus niger [10]): inactive
- zone of inhibition at 10000 µg/mL (Staphylococcus aureus [11]; MSCL 334, 24 h, read-out: DIZ): 32 mm
- zone of inhibition at 10000 µg/mL (Bacillus cereus [12]): 26 mm
- zone of inhibition at 10000 µg/mL (Escherichia coli [13]): 27 mm
- zone of inhibition at 10000 µg/mL (Pseudomonas aeruginosa [14]; MSCL 331, 24 h, read-out: DIZ): 12 mm
- zone of inhibition at 10000 µg/mL (Proteus mirabilis [15]): 18 mm
- zone of inhibition at 10000 µg/mL (Candida albicans [16]): 30 mm
- zone of inhibition at 10000 µg/mL (Aspergillus niger [17]): 17 mm
- inhibition in vivo at 2.5 mg/kg (CCRF S-180 [18]): 56%
- Activity (HT-1080 [19]): 150%
- CC50 [20]: 1820 nM
- CC50 [21]: 1820 nM
- CC50 (MG-22A [22]; [43]): 1360 nM
- CC50 (MG-22A [23]; [43]): 1820 nM

Compound: OC(Cn1cncn1)(Cn1cncn1)c1ccc(F)cc1F [FLUCONAZOLE]
- MIC (Candida albicans [24]): 32 µg/mL (≈ 104 µM)
- MFC (Candida albicans [25]): > 256 µg/mL
- MIC (Aspergillus niger [26]): 8 µg/mL (≈ 26.1 µM)
- MFC (Aspergillus niger [27]): > 256 µg/mL
- zone of inhibition at 2000 µg/mL (Candida albicans [28]): 10 mm
- zone of inhibition at 2000 µg/mL (Aspergillus niger [29]): 11 mm
- zone of inhibition at 4000 µg/mL (Aspergillus niger [30]): 18 mm
- diameter of the inhibition zone (DIZ) (Staphylococcus aureus [31]): inactive
- diameter of the inhibition zone (DIZ) (Staphylococcus aureus [32]): inactive
- diameter of the inhibition zone (DIZ) (Bacillus cereus [33]): inactive
- diameter of the inhibition zone (DIZ) (Bacillus cereus [34]): inactive
- diameter of the inhibition zone (DIZ) (Escherichia coli [35]): inactive
- diameter of the inhibition zone (DIZ) (Escherichia coli [36]): inactive
- diameter of the inhibition zone (DIZ) (Pseudomonas aeruginosa [37]): inactive
- diameter of the inhibition zone (DIZ) (Pseudomonas aeruginosa [38]): inactive
- diameter of the inhibition zone (DIZ) (Proteus mirabilis [39]): inactive
- diameter of the inhibition zone (DIZ) (Proteus mirabilis [40]): inactive

Compound: Cc1c(CCO)sc[n+]1C.[I-]
- Activity (MG-22A [1]): 3%
- LC50 [3]: 643 µg/mL
- diameter of the inhibition zone (DIZ) (Staphylococcus aureus [4]): inactive
- zone of inhibition at 5000 µg/mL (Bacillus cereus [5]): 8 mm
- zone of inhibition at 5000 µg/mL (Escherichia coli [6]): 10 mm
- diameter of the inhibition zone (DIZ) (Pseudomonas aeruginosa [7]): inactive
- zone of inhibition at 5000 µg/mL (Proteus mirabilis [8]): 8 mm
- zone of inhibition at 5000 µg/mL (Candida albicans [9]): 13 mm
- zone of inhibition at 5000 µg/mL (Aspergillus niger [10]; MSCL 324, 48 h, read-out: DIZ): 9 mm
- diameter of the inhibition zone (DIZ) (Staphylococcus aureus [11]): inactive
- zone of inhibition at 10000 µg/mL (Bacillus cereus [12]): 8 mm
- zone of inhibition at 10000 µg/mL (Escherichia coli [13]): 10 mm
- diameter of the inhibition zone (DIZ) (Pseudomonas aeruginosa [14]): inactive
- zone of inhibition at 10000 µg/mL (Proteus mirabilis [15]): 8 mm
- zone of inhibition at 10000 µg/mL (Candida albicans [16]): 13 mm
- zone of inhibition at 10000 µg/mL (Aspergillus niger [17]): 15 mm
- Activity (HT-1080 [19]): 2%
- LC50 (HT-1080 [41]): inactive
- LC50 (HT-1080 [42]): inactive
- LC50 (MG-22A [22]): inactive
- LC50 (MG-22A [23]): inactive
